Converted amounts (≈) assume the structure as drawn.
Legend:
[1] = target: T1, AChE from electric eel (Electrophorus electricus) (Electrophorus electricus, UniProt O42275); test: AChE-inhibition microtiter assay (Ellman, 96-well, with or without NBS oxidation); format: biochemical; conditions: for IC80 / IC20: no oxidation, 4-PL fit, n = 4; for IC80: read-out: IC20 (inhibition concentration for 20% AChE activity), best fit; for IC20: read-out: IC80 (inhibition concentration for 80% AChE activity), best fit
T1 construct: purchased Sigma-Aldrich GmbH (Steinheim, Germany)
Description: Stock solutions (1 mg/mL) of NBS and ascorbic acid were each freshly prepared before the test and then diluted to 10 µg/mL and 100 µg/mL, respectively. The assay was performed with modifications according to Ellman’s method. OTPs, oxons, water, and methanol blanks (15 µL) were each mixed with 15 µL of NBS (10 µg/mL) in a 96-well plate. After an incubation at room temperature for 5 min, the reaction was stopped by adding 15 µL ascorbic acid (100 µg/mL). For the test setup without oxidation, OTPs, oxons, water, and methanol blanks (15 µL) were mixed with 30 µL water per well. Subsequently, 200 µL of a DTNB solution (0.15 mM), buffered in TRIS/HCl at a pH of 7.4, was added to each well of both test setups. Then, 20 µL of an AChE solution (0.5 U/mL), also buffered in TRIS/HCl at a pH of 7.4, was added. An incubation at 30 °C for 30 min without shaking followed. An ATCL solution (0.8 mM) was freshly prepared with water and 30 µL per well was added after incubation. During another incubation at room temperature for 30 min, ATCL was cleaved by AChE into thiocholine and acetic acid. Thiocholine reacts with DTNB to 2-nitro-5-thiobenzoate. The absorbance of the yellow-colored anion was photometrically measured at 405 nm (Sunrise Remote, Tecan Group AG, Männedorf, Schweiz).
Dilution series with eight concentrations of the three OTPs and related oxons (Tab. S1) were freshly prepared from stock solutions (1–10 mg/mL) in methanol. The OTPs and oxons were tested in duplicates with and without prior oxidation in two measurements as described in the “AChE-inhibition microtiter assay” section. Eight water and eight methanol blanks were tested per test setup (oxidation and no oxidation). Of these, two were tested without AChE and two without ATCL. The mean AChE activity (absorption at 405 nm, n = 4) was related to the specific inhibitor dose. The statistic program Prism (version 5.00, Graph Pad Software, San Diego, USA) was used to generate dose–response curves (4-PL fit) and to determine inhibition concentrations (ICs) for the three OTPs and related oxons. The 95% confidence intervals of the curves and the standard deviations of the mean AChE activity were also calculated. The lower boundary of the curves is fixed to 0 and the highest mean activity defines 100%.

[2] = target: T1, AChE from electric eel (Electrophorus electricus); test: HPTLC-(Ox)-AChE-I assay, immersion method (plates immersed in AChE solution); format: biochemical; conditions: without oxidation; for IC10 (10% AChE inhibition), best fit / IC20 (20% AChE inhibition), best fit / IC50 (50% AChE inhibition), best fit / IC80 (80% AChE inhibition), best fit: OTPs 100 µL, oxons 10 µL applied, peak heights, n = 3
Description: LiChrospher 10 × 20 cm HPTLC Silica gel 60 F254s plates (Merck, Darmstadt, Germany) with a layer thickness of 170–190 µm and spherical silica particles with a size of 7 µm were used. The HPTLC plates were immersed twice in 2-propanol for 20 min, each time followed by a drying step at room temperature for 20 min. The plates then were pre-developed with methanol, dried for 20 min at room temperature, heated at 105 °C for 20 min, and stored in a desiccator for further use. The automatic TLC Sampler 4 (ATS 4, CAMAG AG, Muttenz, Switzerland) was used for sample application. The desired sample volumes were sprayed as 6-mm-wide bands onto the HPTLC plates with an application speed of 300 nL/s. The distances of the exterior bands from the edges of the plates were 15 mm. The distance from the bottom edge was 8 mm for all bands. Methanol was used as rinsing solvent. The following further application parameters were used: filling speed 15 µL/s, pre-dosage volume 200 nL, retraction volume 200 nL, rinsing vacuum time 4 s, filling vacuum time 0 s, rinsing cycles 2, and filling cycles 1. The development of the HPTLC plates was realized by the Automated Multiple Development 2 (AMD 2, CAMAG, Muttenz, Switzerland). The OTPs, their oxons, and environmental samples were separated with an eluent mixture of cyclohexane, dichloromethane, and acetone in different proportions and with increasing migration distances (Fig. S2). After each development step, a drying step of 3 min under vacuum followed. The final migration distance was 80 mm and the whole procedure took approximately 45 min. In addition, a simpler development process was used containing only the last step of the previous described method.
After chromatographic development, 10 mL of freshly prepared NBS (100 µg/mL) was sprayed onto the HPTLC plates with a glass reagent sprayer, followed by a 5-min incubation at room temperature. The following AChE-I assay was performed in parts according to Mendoza et al., Stütz et al., and Weins and Jork. AChE was buffered in TRIS/HCl at a pH of 7.8 (2.5 U/mL). The AChE solution was either sprayed onto the HPTLC plates with a glass reagent sprayer until the plates were evenly moist (approx. 10 mL) or the plates were immersed in the AChE solution using the Chromatogram Immersion Device 3 (CID 3, CAMAG, Muttenz, Switzerland). The immersion volume, speed, time, and depth were approx. 200 mL, 2.5 cm/s, 2 s, and approx. 85 mm, respectively. Afterward, the plates were placed separately in closed plastic boxes, which contained paper towels moistened with water to gain a saturated atmosphere. An incubation at 37 °C for 5 min followed. The substrate indoxyl acetate was freshly prepared in methanol at a concentration of 20 mg/mL and 5 mL was sprayed onto the HPTLC plates with a glass reagent sprayer. During 45-min incubation time at room temperature, AChE cleaves the substrate into indoxyl and acetate. The indoxyl reacts with oxygen to the blue indigo dye. When AChE was inhibited, no indigo was produced and the spot stayed white. The TLC Scanner 3 (CAMAG, Muttenz, Switzerland) was used to scan each track on the plates at 670 nm using the fluorescence mode without optical filter. The CAMAG-embedded software Wincats (Vers. 1.4.9) was used to provide chromatograms of each track and to evaluate inhibition zones.
Several amounts of an OTP mix and an oxon mix were applied on HPTLC plates (Tab. S2) and tested as described in the “Combination of HPTLC and AChE-inhibition assay” section. Three plates were used for each dilution series. The application volume was 10 µL for investigating OTPs with following oxidation and 100 µL for testing OTPs without following oxidation. The application volume for the oxons was 10 µL. They were tested without oxidation step also in triplicates. The peak heights were used for evaluation. Only peaks that have a signal-to-noise ratio ≥ 3 were considered in the evaluation. The height next to the respective peak defines the noise. […]

T1 sequence (O42275 24-633): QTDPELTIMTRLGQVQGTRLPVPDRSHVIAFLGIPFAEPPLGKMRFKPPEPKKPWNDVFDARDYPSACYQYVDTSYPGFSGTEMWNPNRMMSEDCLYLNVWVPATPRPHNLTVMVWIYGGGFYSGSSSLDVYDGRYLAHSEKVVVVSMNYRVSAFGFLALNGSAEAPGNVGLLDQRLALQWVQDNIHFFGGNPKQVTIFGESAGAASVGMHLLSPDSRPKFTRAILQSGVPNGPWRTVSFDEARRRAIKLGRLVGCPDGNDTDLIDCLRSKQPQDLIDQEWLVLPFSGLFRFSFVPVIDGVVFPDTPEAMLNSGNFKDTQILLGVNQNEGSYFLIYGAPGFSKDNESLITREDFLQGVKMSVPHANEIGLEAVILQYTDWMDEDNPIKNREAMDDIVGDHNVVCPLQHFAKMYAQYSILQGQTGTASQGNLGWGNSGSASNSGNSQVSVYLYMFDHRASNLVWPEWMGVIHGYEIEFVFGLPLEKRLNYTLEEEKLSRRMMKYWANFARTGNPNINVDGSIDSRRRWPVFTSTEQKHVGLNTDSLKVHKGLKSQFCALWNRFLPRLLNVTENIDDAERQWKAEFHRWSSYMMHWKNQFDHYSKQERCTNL

Structure (SMILES)	IC50 [1]	IC80 [1]	IC20 [1]	LOD immersion method (first detected AChE-I peak with signal-to-noise ratio ≥ 3) [2]	IC10 (10% AChE inhibition), best fit [2]	IC20 (20% AChE inhibition), best fit [2]	IC50 (50% AChE inhibition), best fit [2]	IC80 (80% AChE inhibition), best fit [2]
CCOC(=O)CC(SP(=O)(OC)OC)C(=O)OCC (stereo not drawn) [Malaoxon, malaoxon]	38.2 nM	42 ng/mL (≈ 0.134 µM)	3.5 ng/mL (≈ 0.0111 µM)	0.1 ng/spot	0.14 ng/spot	0.24 ng/spot	0.60 ng/spot	1.5 ng/spot
CCOP(=O)(OCC)Oc1nc(Cl)c(Cl)cc1Cl [Chlorpyrifos-oxon]	–	16 ng/mL (≈ 0.0478 µM)	3.8 ng/mL (≈ 0.0114 µM)	0.25 ng/spot	0.32 ng/spot	0.57 ng/spot	1.5 ng/spot	4.0 ng/spot

— publication PMC9124651, “High-performance thin-layer chromatography in combination with an acetylcholinesterase-inhibition bioassay with pre-oxidation of organothiophosphates to determine neurotoxic effects in storm, waste, and surface water” (Analytical and Bioanalytical Chemistry, 2022)
